pIC50: −log10 of the molar value.
Columns and labels:
CDK13/CycK = target: T1, CDK13/CycK (Homo sapiens, UniProt Q14004); assay: ADP-Glo kinase assay, CDK13; assay type: biochemical; details: means from three independent experiments
T1 construct: ICE Bioscience Inc. (assay service)
Protocol: (§1) The kinase inhibitory activities of the compounds against CDK12 and CDK13 were preliminarily evaluated using the ADP-Glo kinase assay. Cell growth inhibition was determined in VCaP prostate cancer cells, which were characterized as being sensitive to CDK12/13 inhibition.[14]

[1] = test system: VCaP prostate cancer cells; assay: Cell proliferation assay (CellTiter-Glo), VCaP; assay type: cell-based, human; details: for IC50: Homo sapiens, VCaP, 120 h, cell growth inhibition, 5 days, CellTiter-Glo
Protocol: as §1
Cells were seeded in 96-well plates and incubated at 37 °C and 5% CO2. After overnight incubation, serial dilutions of tested compounds were added to the plate. The assay was tested with Cell Titer-Glo (Promega) after 5 days. The luminescence signal was detected by the Infinite M1000 Pro plate reader (Tecan), and the IC50 values were calculated by GraphPad Prism 10.

CDK12/CycK = target: T2, CDK12/CycK (Homo sapiens, UniProt Q9NYV4); assay: ADP-Glo kinase assay, CDK12; assay type: biochemical; details: for IC50: ADP-Glo kinase assay, means from three independent experiments
T2 construct: ICE Bioscience Inc. (assay service)
Protocol: as §1
All the kinase activity were performed using an ADP-Glo kinase assay by ICE Bioscience Inc. (Beijing, China). Kinome selectivity profiles (KINOMEscan profiling) and Kd detection were performed by Eurofins DiscoveryX Corporation (San Diego, CA, USA).

VCaP cells [2] = assay: Washout experiment, cell growth; assay type: cell-based, human; details: VCaP cells treated 6 h, compound removed, 5 days in compound-free media
Protocol: (§2) The previously reported reversible inhibitor 10 was included for comparison. VCaP cells were treated with the compounds for 6 h, after which the compounds were removed, and the cells were cultured in compound-free media for 5 days.

VCaP CRPC xenograft = assay: In vivo efficacy, VCaP CRPC mouse model; design: species or system mice; details: YJZ5118 i.p., q.d., uprosertib p.o., 5x/week, 27 days, compared to vehicle
Protocol: All the animal experiments were performed under an approved animal protocol (Protocol ID: PRO00010006, PI, Arul Chinnaiyan) by the Institutional Animal Care & Use Committee of the University of Michigan. Six- to eight-week-old NSG (Jackson Laboratory) or CB17SCID female (Charles River Laboratory) mice were in a regular SPF housing room prior to cell injection. Briefly, 5 ×10^6 cells of VCaP CRPC were injected […] of NSG or CB17SCID mice, respectively. After tumor size reached approximately 200–400 mm^3, animals were subjected to drug treatment. […] Vehicle consisted of 20% PEG400, 6% Cremophor EL, and 74% PBS solution. Tumors were collected at the end of the experiment for Western blot analysis.

[3] = Permeability and efflux ratio in Caco-2 cells; assay type: in vitro ADME; details: human
[4] = Pharmacokinetics study in mice; assay type: in vivo, ICR mice; details: both sexes, ICR, mouse, plasma
468 kinases = assay: KINOMEscan kinase selectivity profiling; assay type: binding; details: 1 μM; 403 non-mutant kinases
Protocol: Figure S1. The results of selectivity profiling study of compound 14h. (A) Chemical structure and the K d values of compound 14h against CDK12/13, and the KinomeScan kinase selectivity proﬁles of compound 14h at 1 μM against 468 kinases; (B) KinomeScan profiling results of compound 14h against CDK family members.
(1 picture or pasted object on this page, not shown here)

VCaP cells [5] = assay: Cell apoptosis assay by flow cytometry; assay type: cell-based, human; details: YJZ5118 at 100 nM
Protocol: Cells were seeded in six-well plates and incubated for 24 h at 37 °C and 5% CO2. Cells were then treated with the indicated concentrations of the tested compounds for 48 h. The treated cells then were collected, centrifuged and washed twice by cold PBS. […] Cell samples were analyzed with flow cytometry (SH800S cell sorter, Sony Biotechnology).

[6] = test system: phosphorylation of RNA polymerase II at Ser2; assay: Washout experiment, RNA polymerase II Ser2 phosphorylation (immunoblot); assay type: cell-based, human; details: VCaP cells; YJZ5118 100 nM
Protocol: as §2
Generally, after incubation with the compounds for the indicated time, the tested cells were washed by cold PBS buffer (Gibco) and lysed with RIPA buffer (ThermoFisher Scientific) supplemented with cOmplete protease inhibitor cocktail tablets (Sigma-Aldrich). The cell lysate was treated with ultrasonic for 20s, following a centrifugation of 14000 rpm at 4°C for 10 min. The protein concentration was measured by BCA protein assay (DC Protein Assay, BIO-RAD). An equal amount of protein was loaded to 4–12% Bis-Tris gels and underwent SDS-PAGE electrophoresis at 120 V for 90 min. The proteins were transferred to a nitrocellulose (NC) membrane (Thermo Scientific) and the membranes were blocked in 5% milk buffer at room temperature for 1h, followed by incubating with primary antibody at the recommended dilution at 4°C for overnight. The membranes were washed by PBST for three times and incubated with anti-rabbit or anti-mouse HRP-conjugated secondary antibody for 1h at room temperature, after which the membranes were imaged by Odyssey CLx Imager (LiCOR Biosciences).

CDK13 = test system: CDK13; design: method as in PMID 30067358; details: LANCE Ultra assay; read-out: reported IC50 CDK13; cited from earlier work
CDK12 = test system: CDK12; design: method as in PMID 30067358; details: LANCE Ultra assay; read-out: reported IC50 CDK12; cited from earlier work
CDK15/CycY = target: T3, CDK15/CycY (Homo sapiens, UniProt Q96Q40); assay: CDK family panel, ADP-Glo; assay type: biochemical
T3 construct: ICE Bioscience Inc. (assay service)
T3 sequence (Q96Q40 whole entry, species assumed): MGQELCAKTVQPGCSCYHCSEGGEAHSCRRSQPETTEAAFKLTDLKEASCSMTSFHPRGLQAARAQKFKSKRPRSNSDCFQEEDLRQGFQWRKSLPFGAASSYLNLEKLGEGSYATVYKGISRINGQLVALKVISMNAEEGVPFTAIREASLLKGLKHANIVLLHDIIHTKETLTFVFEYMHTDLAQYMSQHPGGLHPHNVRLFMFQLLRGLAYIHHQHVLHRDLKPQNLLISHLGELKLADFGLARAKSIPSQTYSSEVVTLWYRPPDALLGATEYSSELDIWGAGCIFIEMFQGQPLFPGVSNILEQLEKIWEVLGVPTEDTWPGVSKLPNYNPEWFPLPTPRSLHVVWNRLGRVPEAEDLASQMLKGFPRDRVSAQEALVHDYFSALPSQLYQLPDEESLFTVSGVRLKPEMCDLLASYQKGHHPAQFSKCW
T3 sequence (Q8ND76 whole entry partner, species assumed): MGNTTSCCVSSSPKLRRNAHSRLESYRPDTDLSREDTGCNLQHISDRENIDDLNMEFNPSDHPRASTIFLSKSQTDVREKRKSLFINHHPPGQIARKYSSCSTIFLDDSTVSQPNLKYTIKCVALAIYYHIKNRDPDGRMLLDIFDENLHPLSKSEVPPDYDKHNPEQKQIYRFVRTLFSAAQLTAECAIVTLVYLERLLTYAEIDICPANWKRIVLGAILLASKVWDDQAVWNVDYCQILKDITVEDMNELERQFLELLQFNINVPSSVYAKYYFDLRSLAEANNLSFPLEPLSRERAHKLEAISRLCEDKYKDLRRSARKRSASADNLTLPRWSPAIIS

T2 sequence (Q9NYV4 whole entry): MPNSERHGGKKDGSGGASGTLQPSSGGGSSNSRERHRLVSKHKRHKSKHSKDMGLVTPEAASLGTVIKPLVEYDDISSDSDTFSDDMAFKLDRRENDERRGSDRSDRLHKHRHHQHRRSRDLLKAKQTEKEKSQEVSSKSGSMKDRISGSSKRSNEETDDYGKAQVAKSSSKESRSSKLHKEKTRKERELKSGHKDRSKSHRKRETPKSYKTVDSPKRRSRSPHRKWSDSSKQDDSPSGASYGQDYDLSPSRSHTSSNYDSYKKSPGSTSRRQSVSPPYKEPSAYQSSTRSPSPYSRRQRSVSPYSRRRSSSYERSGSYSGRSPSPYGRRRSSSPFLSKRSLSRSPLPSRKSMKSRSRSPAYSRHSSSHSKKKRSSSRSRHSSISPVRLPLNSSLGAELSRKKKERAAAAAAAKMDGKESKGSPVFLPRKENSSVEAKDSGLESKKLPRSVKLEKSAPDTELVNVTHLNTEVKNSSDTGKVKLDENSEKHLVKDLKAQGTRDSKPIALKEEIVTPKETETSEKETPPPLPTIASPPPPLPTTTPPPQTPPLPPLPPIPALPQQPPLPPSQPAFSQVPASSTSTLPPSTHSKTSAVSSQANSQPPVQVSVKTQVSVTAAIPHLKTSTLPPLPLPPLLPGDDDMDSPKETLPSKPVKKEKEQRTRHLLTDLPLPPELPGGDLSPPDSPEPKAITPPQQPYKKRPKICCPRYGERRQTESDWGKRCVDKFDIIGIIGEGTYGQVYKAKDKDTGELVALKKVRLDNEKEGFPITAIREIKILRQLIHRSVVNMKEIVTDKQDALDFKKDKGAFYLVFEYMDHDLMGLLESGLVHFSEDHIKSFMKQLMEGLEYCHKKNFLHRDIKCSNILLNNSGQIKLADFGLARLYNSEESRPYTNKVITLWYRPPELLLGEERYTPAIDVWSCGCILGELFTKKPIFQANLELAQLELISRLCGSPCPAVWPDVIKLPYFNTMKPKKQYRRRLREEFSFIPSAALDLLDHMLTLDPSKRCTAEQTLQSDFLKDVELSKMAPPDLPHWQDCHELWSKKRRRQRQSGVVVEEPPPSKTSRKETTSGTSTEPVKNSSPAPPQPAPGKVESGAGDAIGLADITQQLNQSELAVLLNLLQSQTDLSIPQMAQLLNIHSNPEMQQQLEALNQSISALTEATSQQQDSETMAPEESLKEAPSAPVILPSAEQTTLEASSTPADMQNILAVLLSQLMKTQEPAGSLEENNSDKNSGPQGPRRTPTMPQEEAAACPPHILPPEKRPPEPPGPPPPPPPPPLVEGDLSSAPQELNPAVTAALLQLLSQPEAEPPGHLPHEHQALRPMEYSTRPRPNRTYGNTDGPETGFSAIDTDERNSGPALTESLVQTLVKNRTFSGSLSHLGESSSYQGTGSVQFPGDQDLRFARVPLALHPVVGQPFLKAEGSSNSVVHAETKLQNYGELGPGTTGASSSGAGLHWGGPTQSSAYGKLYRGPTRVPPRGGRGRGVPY
T2 sequence (O75909 whole entry partner): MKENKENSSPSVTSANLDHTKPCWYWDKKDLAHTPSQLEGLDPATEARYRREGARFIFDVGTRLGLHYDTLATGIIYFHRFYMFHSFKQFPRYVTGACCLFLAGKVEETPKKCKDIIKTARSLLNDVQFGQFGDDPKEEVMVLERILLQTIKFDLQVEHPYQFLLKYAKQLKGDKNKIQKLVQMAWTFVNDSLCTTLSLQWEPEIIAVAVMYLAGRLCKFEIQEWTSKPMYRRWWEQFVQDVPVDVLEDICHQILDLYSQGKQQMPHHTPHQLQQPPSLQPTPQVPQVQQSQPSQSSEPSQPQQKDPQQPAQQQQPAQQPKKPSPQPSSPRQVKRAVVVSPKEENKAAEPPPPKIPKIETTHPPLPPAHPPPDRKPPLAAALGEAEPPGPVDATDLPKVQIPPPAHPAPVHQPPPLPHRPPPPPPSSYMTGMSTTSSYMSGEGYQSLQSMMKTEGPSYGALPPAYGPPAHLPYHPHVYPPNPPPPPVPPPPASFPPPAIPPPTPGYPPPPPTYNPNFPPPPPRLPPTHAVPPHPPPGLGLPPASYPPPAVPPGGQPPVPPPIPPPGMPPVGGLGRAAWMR
T1 sequence (Q14004 whole entry): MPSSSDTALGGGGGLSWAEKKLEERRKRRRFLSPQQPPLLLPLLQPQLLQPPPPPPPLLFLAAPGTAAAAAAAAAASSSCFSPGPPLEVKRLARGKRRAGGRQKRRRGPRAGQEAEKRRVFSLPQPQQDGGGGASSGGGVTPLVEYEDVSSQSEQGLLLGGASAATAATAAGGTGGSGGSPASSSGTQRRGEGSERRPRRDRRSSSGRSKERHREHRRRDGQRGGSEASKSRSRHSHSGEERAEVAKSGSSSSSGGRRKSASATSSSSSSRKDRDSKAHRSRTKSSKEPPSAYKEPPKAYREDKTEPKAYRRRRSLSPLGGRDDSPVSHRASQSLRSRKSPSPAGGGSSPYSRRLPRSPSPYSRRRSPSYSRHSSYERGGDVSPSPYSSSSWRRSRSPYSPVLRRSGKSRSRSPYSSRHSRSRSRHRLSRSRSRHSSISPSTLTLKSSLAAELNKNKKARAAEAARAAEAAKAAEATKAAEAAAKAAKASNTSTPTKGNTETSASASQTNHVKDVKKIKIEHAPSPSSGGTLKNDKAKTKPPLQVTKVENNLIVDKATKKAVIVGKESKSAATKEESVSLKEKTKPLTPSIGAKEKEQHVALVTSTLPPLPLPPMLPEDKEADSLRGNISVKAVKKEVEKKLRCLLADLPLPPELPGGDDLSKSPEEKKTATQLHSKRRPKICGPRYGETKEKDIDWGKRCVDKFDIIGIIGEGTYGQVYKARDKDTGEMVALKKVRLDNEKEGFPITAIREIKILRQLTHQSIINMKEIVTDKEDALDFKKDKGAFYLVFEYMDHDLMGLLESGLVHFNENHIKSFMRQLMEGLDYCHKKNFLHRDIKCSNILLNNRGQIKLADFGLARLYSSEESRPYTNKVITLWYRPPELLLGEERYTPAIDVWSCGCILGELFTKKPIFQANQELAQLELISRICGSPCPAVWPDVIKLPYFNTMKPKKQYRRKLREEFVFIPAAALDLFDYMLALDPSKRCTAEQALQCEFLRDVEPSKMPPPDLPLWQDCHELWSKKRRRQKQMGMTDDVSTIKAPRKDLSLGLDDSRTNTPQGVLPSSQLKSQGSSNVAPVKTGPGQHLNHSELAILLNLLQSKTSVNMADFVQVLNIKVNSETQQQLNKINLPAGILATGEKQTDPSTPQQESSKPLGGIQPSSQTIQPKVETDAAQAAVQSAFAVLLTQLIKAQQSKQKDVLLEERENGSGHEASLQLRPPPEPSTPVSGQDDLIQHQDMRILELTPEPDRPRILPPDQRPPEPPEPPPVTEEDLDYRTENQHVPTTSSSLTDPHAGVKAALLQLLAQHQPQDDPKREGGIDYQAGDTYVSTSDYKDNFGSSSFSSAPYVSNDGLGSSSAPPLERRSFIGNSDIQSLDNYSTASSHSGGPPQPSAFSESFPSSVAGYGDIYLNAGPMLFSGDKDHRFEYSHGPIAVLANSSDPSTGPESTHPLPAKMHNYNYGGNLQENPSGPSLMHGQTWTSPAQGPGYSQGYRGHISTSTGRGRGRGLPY
T1 sequence (O75909 whole entry partner): as the sequence (O75909 whole entry partner) above

IC50 (CDK13/CycK)	IC50 [1]	IC50 (CDK12/CycK)	SMILES	also measured
12.8 nM	59.9 nM	55 nM	C=CC(=O)Nc1cc(N(C(=O)NCc2ccccc2)[C@H]2CC[C@H](Nc3ccc(C#N)cn3)CC2)ccc1N1CCOCC1 [Compound 14j, N-(5-(3-benzyl-1-((1r,4r)-4-((5-cyanopyridin-2-yl)amino)cyclohexyl)ureido)-2-morpholinophenyl)acrylamide]	
			Cn1cc(-n2cnc3c(NCc4nc5cc(Cl)c(Cl)cc5[nH]4)nc(N4CCOCC4)nc32)cn1 [Compound 10, SR-4835, reference compound]	cell growth inhibitory effect after washout (VCaP cells [2]): nearly completely lost following washout
177 nM	57.6 nM	568 nM	C=CC(=O)Nc1cc(N(C(=O)NCc2ccccc2)[C@H]2CC[C@H](Nc3ccc(C#N)cn3)CC2)ccc1N1CCC(N(C)C)C1 (stereo partly drawn) [Compound 14e, N-(5-(3-benzyl-1-((1r,4r)-4-((5-cyanopyridin-2-yl)amino)cyclohexyl)ureido)-2-(3-(dimethylamino)pyrrolidin-1-yl)phenyl)acrylamide]	
73.7 nM	133 nM	151 nM	C=CC(=O)Nc1cc(N(C(=O)NCc2ccccc2)[C@H]2CC[C@H](Nc3ccc(C#N)cn3)CC2)ccc1N1CC(N(C)C)C1 [Compound 14d, N-(5-(3-benzyl-1-((1r,4r)-4-((5-cyanopyridin-2-yl)amino)cyclohexyl)ureido)-2-(3-(dimethylamino)azetidin-1-yl)phenyl)acrylamide]	
83.9 nM	76.3 nM	209 nM	C=CC(=O)Nc1cc(N(C(=O)NCc2ccccc2)[C@H]2CC[C@H](Nc3ccc(C#N)cn3)CC2)ccc1N1C[C@H]2C[C@@H]1CN2C [Compound 14g, N-(5-(3-benzyl-1-((1r,4R)-4-((5-cyanopyridin-2-yl)amino)cyclohexyl)ureido)-2-((1R,4R)-5-methyl-2,5-diazabicyclo[2.2.1]heptan-2-yl)phenyl)acrylamide]	
			Cn1ncc(Cl)c1-c1cc(C(=O)N[C@H](CN)Cc2ccc(F)c(F)c2)oc1Cl [Uprosertib, reference compound]	tumor growth (VCaP CRPC xenograft): significant reduction in tumor growth
66.8 nM	39.9 nM	130 nM	C=CC(=O)Nc1cc(N(C(=O)NCc2ccccc2)[C@H]2CC[C@H](Nc3ccc(C#N)cn3)CC2)ccc1N1CCN(C)CC1 [Compound 14f, N-(5-(3-benzyl-1-((1r,4r)-4-((5-cyanopyridin-2-yl)amino)cyclohexyl)ureido)-2-(4-methylpiperazin-1-yl)phenyl)acrylamide]	
63.3 nM	33.5 nM	77.4 nM	CN(C)C/C=C/C(=O)Nc1ccc(C(=O)N2CCC[C@@H](Nc3ncc(Cl)c(-c4c[nH]c5ccccc45)n3)C2)cc1 [Compound 3, THZ531, reference compound]	apoptosis rate (VCaP cells [5]): 24.9%
			Cn1cc(-c2ccc(N(C(=O)NCc3ccccc3)[C@H]3CC[C@H](Nc4ccc(C#N)cn4)CC3)cc2)ccc1=O [Compound 2, reference compound]	RNA polymerase II Ser2 phosphorylation after washout [6]: recovery of phosphorylation at 4 h after washout; pIC50 (CDK13): 8.00; pIC50 (CDK12): 7.28; IC50 (CDK15/CycY): 3020 nM

SMILES	IC50 (CDK13/CycK)	IC50 [1]	IC50 (CDK12/CycK)	also measured
C=CC(=O)Nc1cc(N(C(=O)NCc2ccccc2)[C@H]2CC[C@H](Nc3ccc(C#N)cn3)CC2)ccc1N1CCN(C(C)=O)CC1 [Compound 14i, N-(2-(4-acetylpiperazin-1-yl)-5-(3-benzyl-1-((1r,4r)-4-((5-cyanopyridin-2-yl)amino)cyclohexyl)ureido)phenyl)acrylamide]	164 nM	45.5 nM	331 nM	fold weaker potency against the kinases compared to 14f (CDK12/CycK; CDK12 and CDK13): 2- to 3 fold
C=CC(=O)Nc1cccc(N(C(=O)NCc2ccccc2)[C@H]2CC[C@H](Nc3ccc(C#N)cn3)CC2)c1 [Compound 14b, N-(3-(3-benzyl-1-((1r,4r)-4-((5-cyanopyridin-2-yl)amino)cyclohexyl)ureido)phenyl)acrylamide]	99 nM	96.2 nM	506 nM	Papp A→B [3]: 0.91 ×10⁻⁶ cm/s; Papp B→A [3]: 13.7 ×10⁻⁶ cm/s; efflux ratio [3]: 15; fold more potency than 14a in the growth inhibition assay against VCaP cells [1]: 3.4 fold; reduction in kinase inhibitory potency compared with 14a (CDK12/CycK; CDK12 and CDK13): 7- to 13 fold
C=CC(=O)Nc1cc(N(C(=O)NCc2ccccc2)[C@H]2CC[C@H](Nc3ccc(C#N)cn3)CC2)ccc1N1CCN(C)[C@@H](C)C1 [Compound 14h, N-(5-(3-benzyl-1-((1r,4S)-4-((5-cyanopyridin-2-yl)amino)cyclohexyl)ureido)-2-((S)-3,4-dimethylpiperazin-1-yl)phenyl)acrylamide]	21.7 nM	4.3 nM	33.1 nM	AUC(0-t) ([4]; iv, i.v. 2 mg/kg): 309 ng·h/mL; Cmax ([4]; iv, i.v. 2 mg/kg): 658 ng/mL; Tmax ([4]; iv, i.v. 2 mg/kg): 4.8 min; clearance ([4]; iv, i.v. 2 mg/kg): 108 mL/min/kg; half-life ([4]; iv, i.v. 2 mg/kg): 21.6 min; bioavailability ([4]; po, 10 mg/kg, p.o. 10 mg/kg, read-out: F (oral bioavailability)): 42.2%; AUC(0-t) ([4]; po, p.o. 10 mg/kg): 652 ng·h/mL; Cmax ([4]; po, p.o. 10 mg/kg): 499 ng/mL; Tmax ([4]; po, p.o. 10 mg/kg): 30 min; half-life ([4]; po, p.o. 10 mg/kg): 37.2 min; Number of Hits, S (1) (468 kinases): 0; Number of Hits, S (10) (468 kinases): 2; Number of Hits, S (35) (468 kinases): 6; Selectivity Score S (10) (468 kinases): 0.005; Selectivity Score S (35) (468 kinases): 0.015
C=CC(=O)Nc1cc(N(C(=O)NCc2ccccc2)[C@H]2CC[C@H](Nc3ccc(C#N)cn3)CC2)ccc1-c1ccc(=O)n(C)c1 [Compound 14a, N-(5-(3-benzyl-1-((1r,4r)-4-((5-cyanopyridin-2-yl)amino)cyclohexyl)ureido)-2-(1-methyl-6-oxo-1,6-dihydropyridin-3-yl)phenyl)acrylamide]	14.9 nM	330 nM	37.9 nM	Papp A→B [3]: 0.07 ×10⁻⁶ cm/s; Papp B→A [3]: 5.25 ×10⁻⁶ cm/s; efflux ratio [3]: 72.6; antiproliferative potency in VCaP cells, fold more potent than lead compound 2 [1]: approximately 6 fold
C=CC(=O)Nc1cc(N(C(=O)NCc2ccccc2)[C@H]2CC[C@H](Nc3ccc(C#N)cn3)CC2)ccc1N(C)CCN(C)C [Compound 14c, N-(5-(3-benzyl-1-((1r,4r)-4-((5-cyanopyridin-2-yl)amino)cyclohexyl)ureido)-2-((2-(dimethylamino)ethyl)(methyl)amino)phenyl)acrylamide]	79.3 nM	44.4 nM	191 nM	antiproliferative potency in VCaP cells, fold more potent than lead compound 2 [1]: approximately 44 fold
